Consider two molecules from publication PMC3368886, “ATPase Cycle and DNA Unwinding Kinetics of RecG Helicase” (PLoS ONE, 2012).

Test [1] has as its target T1, RecG (Thermotoga maritima, UniProt Q9WY48).
T1 construct: made in house
T1 sequence (Q9WY48 1-780): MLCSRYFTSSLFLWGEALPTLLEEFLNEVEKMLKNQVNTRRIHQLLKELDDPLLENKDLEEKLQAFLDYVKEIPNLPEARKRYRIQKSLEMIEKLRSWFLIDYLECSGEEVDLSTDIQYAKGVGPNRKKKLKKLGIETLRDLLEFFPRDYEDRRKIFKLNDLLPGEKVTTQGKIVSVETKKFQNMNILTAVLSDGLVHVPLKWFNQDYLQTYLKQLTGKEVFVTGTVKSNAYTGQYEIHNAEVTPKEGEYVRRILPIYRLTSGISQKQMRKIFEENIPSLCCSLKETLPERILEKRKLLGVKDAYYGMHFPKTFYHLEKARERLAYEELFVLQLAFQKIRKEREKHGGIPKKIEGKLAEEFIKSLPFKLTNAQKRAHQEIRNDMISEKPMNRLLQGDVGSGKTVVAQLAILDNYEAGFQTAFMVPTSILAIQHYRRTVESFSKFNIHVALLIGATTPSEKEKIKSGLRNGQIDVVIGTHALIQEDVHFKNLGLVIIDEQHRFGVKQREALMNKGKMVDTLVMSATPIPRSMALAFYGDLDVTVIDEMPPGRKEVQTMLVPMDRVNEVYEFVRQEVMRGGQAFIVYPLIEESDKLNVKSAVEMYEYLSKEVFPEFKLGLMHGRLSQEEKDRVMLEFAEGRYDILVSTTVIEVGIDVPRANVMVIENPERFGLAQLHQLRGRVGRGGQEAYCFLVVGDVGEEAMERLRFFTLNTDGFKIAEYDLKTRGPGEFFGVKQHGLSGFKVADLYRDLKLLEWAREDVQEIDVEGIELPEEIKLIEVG
The test is described as follows: Steady-state ATPase rate measurements with phosphate biosensor MDCC-PBP. It counts as biochemical. The following applies: no DNA, 20°C, 10 nM RecG.

The target in test [2] is T1, RecG. The test is described as follows: Stopped-flow mantATP binding in the absence of DNA. An excerpt: The kinetics of specific steps of the ATPase cycle were investigated in the absence of DNA, to determine which are modulated by the interaction with DNA. For the association measurements between RecG and mantATP, RecG was mixed with excess mantATP in the stopped-flow apparatus and the fluorescence followed with time. Following fitting by single exponentials, there was a linear relationship between the observed rate constant and nucleotide concentration (Figure S3A).
As done for the RecG⋅DNA complex, measurements were also taken with an excess of RecG over mantATP (Figure S3B). A large, relative rapid, increase in mant fluorescence was observed followed by a small gradual increase. The rate constants are consistent with those at excess mantATP. Under the same conditions of excess RecG over mantATP, mantATP cleavage (acid quench) and Pi release were measured (Figure S3B). […] The cleavage step rate constant was 4×10^−4 s^−1, ∼10^3 slower than in the presence of DNA. […] The cleavage step was greatly stimulated by DNA.
Supplementary file pone.0038270.s003.tif: Figure S3 Kinetic measurements in the absence of DNA. (A) Association kinetics with mantATP. Dependence of the observed rate constants on mantATP concentration from mixing 0.5 µM RecG with excess mantATP under the same conditions as Figure 3. Points shown are typically an average of three individual measurements. The best linear fit gives a slope of 0.4 (±0.15) µM^−1 s^−1 and intercept 1.7 (±0.6) s^−1. (B) Fluorescence trace upon mixing 2.5 µM RecG with 0.5 µM mantATP under the conditions of Figure 4. The trace was fitted by an exponential and a slope giving rates of 0.42 (±0.12) s^−1 for the former. Note that as the fluorescence slowly increases beyond the time course, it was not possible to calibrate the ordinate. Inset: Hydrolysis and Pi release for these conditions. The circles represent single time points for a quenched-flow measurement of mantADP formation. Pi release kinetics (continuous line) were measured for the same mixture containing 10 µM MDCC-PBP. (TIF) Click here for additional data file.

The structures appear in SMILES notation. pKd: −log10 of the molar value.

Regarding `Nc1ncnc2c1ncn2[C@@H]1O[C@H](COP(=O)(O)OP(=O)(O)OP(=O)(O)O)[C@@H](O)[C@H]1O` [ATP], at RecG [1], the K m is recorded as 7.5 (±3.1) µM and the k cat was 0.2 (±0.1) s^−1.

`CNc1ccccc1C(=O)O[C@H]1[C@@H](O)[C@H](n2cnc3c(N)ncnc32)O[C@@H]1COP(=O)(O)OP(=O)(O)OP(=O)(O)O` [mantATP, 2′(3′)-O-(N-methylanthraniloyl)ATP]: at RecG [2] (0.5 µM RecG, excess mantATP), the “intercept (dissociation)” value was 1.7 (±0.6) s^−1 and the “second order association rate constant (slope)” value is 0.4 (±0.15) µM^−1s^−1. In addition, the “rate of exponential fluorescence increase” value on RecG [2] (2.5 µM RecG with 0.5 µM mantATP) was 0.42 (±0.12) s^−1. For the same molecule, at RecG [2] (from intercept and slope), the pKd (usually −log10 of the Kd, conventionally taken in molar units) was 5.37.
